Source: ChEMBL document CHEMBL1123138 (J Med Chem, 1985)

System: Rattus norvegicus
Test: Effective dose required to inhibit sorbitol accumulation in sciatic nerves of streptozotocinized rats administered perorally
Type: functional, Sciatic nerve

Row | Compound | ED50 [mg/kg]
1 | O=C1NC(=O)[C@@]2(CCOc3ccc(F)cc32)N1 (stereo in doubt; form 1) [SORBINIL] | 0.25
2 | O=C1NC(=O)[C@@]2(CCOc3ccc(F)cc32)N1 (stereo in doubt; form 2) [SORBINIL] | 25
